The text below walks through data of patent US10655105B2, “Method for proliferation of pancreatic progenitor cells” (Takeda Pharmaceutical Company Limited, priority 2014, dated 2020).

Experiment [1] deals with 297L1 cell-derived pancreatic progenitor cells (passage number: 7). Conditions: Stem Cell Research 2012, 8, 274-284; cited from earlier work.
Experiment [2] has the same test system. In words: Differentiation induction of insulin-producing cells from proliferated pancreatic progenitor cells, NKX6.1/INSULIN immunofluorescence staining. The experiment is classed as cell-based, human. Conditions: cultured 9 days in IMEM-option Zn++ medium with 1% B-27; FIG. 9. The source says: Study was made on whether the proliferated and repetitively passaged pancreatic progenitor cells would have the ability to differentiate into INSULIN-producing cells. The cells used were 297L1 cell-derived pancreatic progenitor cells (passage number: 7). The pancreatic progenitor cells brought to a single cell state using Accutase were inoculated at 6×10^4 cells/well to a 96-well plate coated with Matrigel. The culture solution used was IMEM-option Zn^++ medium (containing 1% B-27®) supplemented with XAV939 (1 μM), Y27632 (10 μM), and bFGF (50 ng/ml). The cells were cultured for 2 days to render the cell density confluent. Then, the cells were washed with IMEM-option Zn^++ medium and then cultured for 9 days using IMEM-option Zn^++ medium (containing 1% B-27®) supplemented with ALKS inhibitor II. […] 4% PFA was added to the cells thus cultured, and the cells were fixed at room temperature for 30 minutes. The cells were further reacted with an anti-NKX6.1 antibody and an anti-INSULIN antibody (DAKO, A0564) as primary antibodies and further with an Alexa 488-labeled secondary antibody or an Alexa 568-labeled secondary antibody as a secondary antibody, sequentially, and then observed under a fluorescence microscope.

For experiment [3], the system named is PDX1-positive cells differentiation-induced from human iPS cell line 253G1. In words: Induction of pancreatic progenitor cells from PDX1-positive cells (253G1 iPS-derived), anti-PDX1/anti-NKX6.1 immunofluorescence staining. Type of experiment: cell-based. Conditions: cultured 7 days, IMEM-option Zn++ medium with 1% B-27; XAV939 1 μM and/or bFGF 100 ng/ml; FIG. 1. The method, then: The PDX1-positive cells differentiation-induced on a Matrigel-coated dish according to Reference Example 1 were washed with IMEM-option Zn^++ medium and then further cultured for 7 days in IMEM-option Zn^++ medium (containing 1% B-27®) supplemented with XAV939 (1 μM) and/or bFGF (100 ng/ml) (PeproTech, Inc.).
In order to examine the expression of PDX1 and NKX6.1 proteins in the cells thus cultured, immunofluorescence staining was carried out using an anti-PDX1 antibody and an anti-NKX6.1 antibody. […] Then, the cells were reacted with an anti-PDX1 antibody (AF2419, R&D Systems, Inc.) and an anti-NKX6.1 antibody (55F55A12-c, Developmental Studies Hybridoma Bank) as primary antibodies and further with an Alexa 488-labeled secondary antibody or an Alexa 568-labeled secondary antibody (both from Life Technologies Corp.) as a secondary antibody, sequentially, and then observed under a fluorescence microscope.
The PDX1-positive cells differentiation-induced on a Matrigel-coated dish according to Reference Example 1 were washed with IMEM-option Zn^++ medium. […] The cells thus cultured were subjected to the immunofluorescence staining described in Example 1 and observed under a fluorescence microscope.

In the case of `Cc1cccc(-c2[nH]ncc2-c2ccc3ncccc3n2)n1` [ALKS inhibitor II], the “induction of INSULIN-positive cells” value in experiment [1] is given as “known to induce INSULIN-positive cells”. Besides, the “appearance of INSULIN-positive cells” value in experiment [2] was “INSULIN-positive cells appeared”. With `O=c1[nH]c(-c2ccc(C(F)(F)F)cc2)nc2c1CSCC2` [XAV939, 2-(4-trifluoromethylphenyl)-7,8-dihydro-5H-thiopyrano[4,3-d]pyrimidin-4(3H)-one], the “cells expressing PDX1 and NKX6.1 (immunofluorescence staining)” value in experiment [3] is “cells coexpressing PDX1 and NKX6.1 were few in number”. For “bFGF: FGF signal transduction activator, bFGF (FGF2)”, the “cells expressing PDX1 and NKX6.1 (immunofluorescence staining)” value in experiment [3] is “cells coexpressing PDX1 and NKX6.1 were few in number”.
